Experimental data as given in patent publication US20260083751A1, “ALLOSTERIC MODULATORS OF ANDROGEN RECEPTOR COACTIVATOR RECRUITMENT FOR CRPC THERAPY” (University of Pittsburgh – Of the Commonwealth System of …, priority 2022, published 2026).

Molecular target: T1, AR-TIF2 PPI (Homo sapiens, UniProt P10275)
T1 construct: AR-LBD residues (662-919) were incorporated into one biosensor; expressed in transfected cells; host or cells: U-2 OS osteosarcoma cells, coinfected with recombinant adenoviruses
T1 sequence (P10275 662-919): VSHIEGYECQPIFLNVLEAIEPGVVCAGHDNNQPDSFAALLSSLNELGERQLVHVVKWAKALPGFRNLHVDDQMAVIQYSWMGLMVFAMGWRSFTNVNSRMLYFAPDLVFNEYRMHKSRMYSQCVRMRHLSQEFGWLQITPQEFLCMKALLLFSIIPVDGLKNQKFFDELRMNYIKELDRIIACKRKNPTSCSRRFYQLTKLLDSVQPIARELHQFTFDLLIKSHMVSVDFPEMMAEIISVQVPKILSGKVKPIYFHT
Test: AR-TIF2 PPIB assay, both formats stated jointly
Assay type: cell-based
Details: for IC50: both assay formats, read-out: AR-TIF2 PPI inhibitor/disruptor IC50s; for Fold reduction in relative potency in both AR-TIF2 PPIB assay formats: analog versus its parent hit
Procedure: AR-TIF2 Protein-Protein Interaction Biosensor Assay: The AR-TIF2 PPIB HCS assay was performed in U-2 OS osteosarcoma cells as described previously (Fancher et al., Assay Drug Dev Technol. 2016, 14:453-477; Fancher et al., Assay Drug Dev Technol. 2018, 16:297-319; Hua et al., Assay Drug Dev Technol. 2014, 12:395-418; Hua et al., Methods Mol Biol. 2018, 1683:211-227). Briefly, U-2 OS cells were coinfected with recombinant adenovirus biosensor expression constructs and seeded at 2,500 cells per well in 384-well collagen-coated microplates (Greiner Bio-One #781956) and plates were incubated overnight at 37° C. in 5% CO2 and 95% humidity. […] After the appropriate time, assay plates were fixed by transfer of 50 μL of pre-warmed (37° C.) 7.4% formaldehyde and 2 μg/mL Hoechst 33342 in PBS and incubation at room temperature for 30 minutes. Liquid was aspirated, plates were washed twice with 85 μL PBS, leaving the final wash in the plate. Plates were sealed with adhesive aluminum plate seals, and fluorescent images of three fields of view were acquired in the DAPI (Hoechst stained nuclei), FITC (TIF2-GFP) and Texas Red (AR-RFP) channels on an ImageXpress® Micro (IXM) automated HCS platform (Molecular Devices LLC, Sunnyvale, CA) using a 10× Plan Fluor 0.3 NA objective. Images were analyzed using the Translocation Enhanced (TE) image analysis module of the MetaXpress® software (Molecular Devices, LLC, San Jose, CA) as described previously (Fancher et al., Assay Drug Dev Technol. 2016, 14:453-477; Fancher et al., Assay Drug Dev Technol. 2018, 16:297-319; Hua et al., Assay Drug Dev Technol. 2014, 12:395-418; Hua et al., Methods Mol Biol. 2018, 1683:211-227).
A positional AR-TFI2 protein-protein interaction biosensor (PPIB) assay was used to identify small molecules that inhibited DHT-induced formation of AR-TIF2 PPIs and/or disrupted pre-existing AR-TIF2 PPIs (Fancher et al., Assay Drug Dev Technol 2016, 14(8):453-477; Fancher et al., Assay Drug Dev Technol 2018, 16(6):297-319; Hua et al., Assay Drug Dev Technol 2014, 12:395-418; Hua et al., Methods Mol biol 2018, 1683:211-227). AR-LBD residues (662-919) were incorporated into one biosensor and TIF2 residues (725-840) containing the 3rd NR box LXXLL motif into the second interacting biosensor partner (Id.) The AR-TIF2 PPIB recapitulates the orthosteric ligand (OSL)-induced translocation of AR from the cytoplasm into the nucleus where PPIs with TIF2 result in colocalization of both biosensors in the nucleolus. Using three libraries, a total of 143,535 compounds were screened—a 10,000-compound ChemDiv PPI focused diversity library, a 50,000-compound ChemBridge diversity library, and a 83,535-compound library provided by the NCI's Chemical Biology Consortium. The 10K and 50K diversity libraries were subsets of 142K and 810K parent libraries, enabling screening of a representative subset of >1×10^6 compounds. AR-TIF2 PPI inhibitor and disruptor actives were confirmed in the HCS assay and counter screens designed to identify and exclude nuisance/interference or non-selective compounds (Fancher et al., Assay Drug Dev Technol 2018, 16(6):297-319). […] An AR-GFP subcellular localization assay was used to exclude compounds that reduced AR expression and/or restricted its localization to the cytoplasm (Fancher et al., Assay Drug Dev Technol 2018, 16(6):297-319; Johnston et al., Assay Drug Dev Technol 2016, 14:226-239; Masodi et al., Mol Cancer Ther 2017, 16(10):2120-2129). Hits were structurally classified, clustered, and medicinal chemistry computational filters (PAINS/REOS) were used to exclude nuisance compounds and evaluate drug-like properties (Baell, J Med Chem 2010, 53(7):2719-2740; Baell, ACS Chem. Biol. 2018, 13:36-44; Johnston, Curr Opin Chem Biol 2011, 15:174-182; Walters, Adv Drug Deliv Rev 2002, 54:255-271). […]

| IC50 [µM] | Fold reduction in relative potency in both AR-TIF2 PPIB assay formats [fold] | SMILES |
| --- | --- | --- |
| > 100 |  | Cc1ccccc1-c1cc(O)c2c(c1)CN(c1cc(N)ncn1)CCO2 [Compound S1-4] |
| > 100 |  | Cc1nsc(NC(=O)N2CCC(Cn3ccnc3)CC2)n1 [Compound S2-7] |
|  | ~2 | Cc1nc(N)cc(N2CCOc3c(O)cc(-c4ccccc4C)cc3C2)n1 [Compound S1-2] |
|  | 4 | COc1cc(-c2ccc(C)s2)cc2c1OCCN(c1nc(C(N)=O)cs1)C2 [Compound S1-5] |
|  | ~2 | Cc1c(-c2ccc(F)cc2)[nH]c2ccc(CNC(=O)c3ccc(CO)o3)cc12 [Compound S3-15] |
